Measured values: patent publication US20260007634A1, “PHARMACEUTICAL COMPOSITIONS FOR THE TREATMENT OF ALLERGIC DISEASES” (KINKI UNIVERSITY, priority 2022, published 2026)

Assays:
Assay type in all cases: in vivo, mouse
IL-4 [1] = assay: Serum IL-4 ELISA, food allergy mice; details: OVA food allergy; serum day 28; oral 10 mg/kg (dexamethasone 2 mg/kg); control 210, vehicle 1154
Experimental: A 0.2 mL dose of 10 μg ovalbumin (OVA) and 1 mg Alum mixture was administered to 6-week-old female Balb/c mice (Japan SLC Inc.) (day 0 of the example). Alum was used as an adjuvant. Seven days later, the Balb/c mice were immunized again with a 0.2 mL injection of the above mixture. Starting on day 14, mice were orally treated with 10 mg/kg of norathyriol, 10 mg/kg of mangiferin 8a, 10 mg/kg of tofacitinib (JAK inhibitor), 2 mg/kg of dexamethasone (steroid) and 10 mg/kg of olopatadine (antihistamine) daily for 14 consecutive days. Starting on day 14, 10 mg OVA was administered orally every other day […], and the frequency of diarrhea was measured after the final administration on day 28. Note that tofacitinib, dexamethasone, and olopatadine are currently in clinical use in food allergy and were used as control drugs in this example.
Serum was collected from day 28 mice in Examples 21, and IL-4 production was measured by enzyme-linked immunosorbent assay (ELISA). This assay was performed using a mouse IL-4 ELISA kit (R&D).

BAFF = assay: Serum BAFF ELISA, bronchial asthma mice; details: OVA bronchial asthma; serum day 28; oral 10 mg/kg (dexamethasone 2 mg/kg); control 97, vehicle 1319
Experimental: (§1) A 0.2 mL dose of 50 μg ovalbumin (OVA) and 2 mg Alum mixture was administered to 6-week-old female Balb/c mice (Japan SLC Inc.) (day 0 of the example). Alum was used as an adjuvant. Seven days later and 14 days later, the Balb/c mice were immunized again with 0.2 mL injections of the above mixture. Starting on day 20, mice were orally treated with 10 mg/kg of norathyriol, 10 mg/kg of mangiferin 8a, 10 mg/kg of tofacitinib (JAK inhibitor), 2 mg/kg of dexamethasone (steroid) and 10 mg/kg of olopatadine (antihistamine) daily for 8 consecutive days. Starting on day 21, 400 μg OVA was administered intranasally, and cough was measured on day 27. […]
Serum was collected from day 28 mice in Examples 14, and BAFF production was measured by enzyme-linked immunosorbent assay (ELISA). This assay was performed using a mouse BAFF ELISA kit (R&D).

OVA-IgE antibody = assay: Serum OVA-IgE antibody ELISA, allergic rhinitis mice; details: serum day 28, oral 10 mg/kg (dexamethasone 2 mg/kg), control 2.7, vehicle 69
Experimental: (§2) A 0.2 mL dose of 50 μg ovalbumin (OVA) and 2 mg Alum mixture was administered to 6-week-old female Balb/c mice (Japan SLC Inc.) (day 0 of the example). Alum was used as an adjuvant. Seven days later and 14 days later, the Balb/c mice were immunized again with 0.2 mL injections of the above mixture. Starting on day 20, mice were orally treated with 10 mg/kg of norathyriol, 10 mg/kg of mangiferin 8a, 10 mg/kg of tofacitinib (JAK inhibitor), 2 mg/kg of dexamethasone (steroid) and 10 mg/kg of olopatadine (antihistamine) daily for 8 consecutive days. Starting on day 21, 400 μg OVA was administered intranasally, and nose-scratching behavior was measured on day 27. Note that tofacitinib, dexamethasone, and olopatadine are currently in clinical use in allergic rhinitis and were used as control drugs in this example.
Serum was collected from day 28 mice in Examples 6 and 7, and OVA-IgE antibody production was measured by enzyme-linked immunosorbent assay (ELISA). This assay was performed using a mouse OVA-IgE antibody ELISA kit (FUJIFILM Wako).

IL-4 [2] = assay: Serum IL-4 ELISA, bronchial asthma mice; details: OVA bronchial asthma; serum day 28; oral 10 mg/kg (dexamethasone 2 mg/kg); control 282, vehicle 863
Experimental: as §2, with “cough” for “nose-scratching behavior”
Serum was collected from day 28 mice in Examples 14, and IL-4 production was measured by enzyme-linked immunosorbent assay (ELISA). This assay was performed using a mouse IL-4 ELISA kit (R&D).

IL-4 [3] = assay: Serum IL-4 ELISA, cedar pollinosis mice; details: serum day 28, oral 10 mg/kg (dexamethasone 2 mg/kg), control 55, vehicle 374
Experimental: as §1, with “of 100” for “of 50”, “μg cedar pollen” for “μg ovalbumin (OVA)”, “and 1” for “and 2”, “21, 500” for “21, 400”, “μg cedar pollen” for “μg OVA”, “and nose-scratching behavior” for “and cough”
Serum was collected from day 28 mice in Examples 28 and 29, and IL-4 production was measured by enzyme-linked immunosorbent assay (ELISA). This assay was performed using a mouse IL-4 ELISA kit (R&D).

| Compound | amount of IL-4 (IL-4 [1]) | amount of BAFF (BAFF) | amount of OVA-IgE antibody (OVA-IgE antibody) | amount of IL-4 (IL-4 [2]) | amount of IL-4 (IL-4 [3]) |
| --- | --- | --- | --- | --- | --- |
| C[C@@H]1C[C@H]2[C@@H]3CCC4=CC(=O)C=C[C@]4(C)[C@@]3(F)[C@@H](O)C[C@]2(C)[C@@]1(O)C(=O)CO [dexamethasone] | 415 pg/mL | 321 pg/mL | 18 U/mL | 359 pg/mL | 78 pg/mL |
| O=c1c2cc(O)c(O)cc2oc2cc(O)cc(O)c12 [norathyriol, 1,3,6,7-tetrahydroxyxanthone] | 694 pg/mL | 649 pg/mL | 36 U/mL | 545 pg/mL | 111 pg/mL |
| C[C@@H]1CCN(C(=O)CC#N)C[C@@H]1N(C)c1ncnc2[nH]ccc12 [tofacitinib] | 1015 pg/mL | 902 pg/mL | 50 U/mL | 831 pg/mL | 213 pg/mL |
| CN(C)CC/C=C1/c2ccccc2COc2ccc(CC(=O)O)cc21 [olopatadine] | 1054 pg/mL | 1304 pg/mL | 67 U/mL | 781 pg/mL | 263 pg/mL |
